From US7691594B2, “Anticancer agent” (Fujifilm Corporation, priority 2006, dated 2010)

Tests used:
[1] = tested on: messenger RNA of PCDH20 gene in LU65 cells; assay: RT-PCR of PCDH20 gene messenger RNA expression after inhibitor treatment, LU65 cells; format: cell-based, human
Description: (§1) Specifically, the results were obtained by adding either 5-aza-deoxycytidine (5-aza-dCyd) serving as a DNA methyltransferase inhibitor to each cell type at concentrations of 5 or 10 μM for 5 days and/or trichostatin A (TSA) serving as a non-specific inhibitory substance for histone deacetylase to each cell type at concentrations of […] or […] for 12 hours before cell harvest during culture, and then carrying out RT-PCR, followed by comparison of the expression levels of PCDH20 gene messenger RNA via electrophoresis. The expression level of GAPDH was used as a control in RT-PCR.
(§2) Cell lines used herein were squamous cell lines EBC-1, LK-2, PC10, VMRC-LCP, LC-1sq, and ACC-LC-73; adenocarcinoma cell lines 11-18, A549, ABC-1, RERF-LC-OK, VMRC-LCD, SK-LC-3, and RERF-LC-KJ; and large cell carcinoma cell lines KNS-62, 86-2, LU65, PC-13, ACC-LC-33, NCI-H460, and LU99A. As lung cancer samples derived from clinical specimens, paraffin-embedded samples derived from 53 types of adenocarcinoma and rapidly-frozen samples derived from 59 types of adjacent normal site were used. Cancer samples derived from clinical specimens were obtained from the National Cancer Center, Hokushin General Hospital of Nagano Prefectural Welfare Federation and used under agreement with each patient and approval of the ethical committee of each organization. […]

[2] = tested on: messenger RNA of PCDH20 gene in ABC-1 cells; assay: RT-PCR of PCDH20 gene messenger RNA expression after inhibitor treatment, ABC-1 cells; format: cell-based, human
Description: as §1, §2

[3] = 5-aza-dCyd 5 μM and 10 μM for 5 days, GAPDH control
[4] = TSA 100 ng/ml for 12 hours before harvest together with 5-aza-dCyd

Structure (SMILES)	expression level of messenger RNA of PCDH20 gene (RT-PCR) [1, 3]	expression level of messenger RNA of PCDH20 gene (RT-PCR) [2, 3]	expression level of messenger RNA of PCDH20 gene (RT-PCR), combination [1, 4]	expression level of messenger RNA of PCDH20 gene (RT-PCR), combination [2, 4]
Nc1ncn([C@H]2C[C@H](O)[C@@H](CO)O2)c(=O)n1 [5-aza-deoxycytidine]	transcription suppression was canceled	transcription suppression was canceled	–	–
CC(/C=C/C(=O)NO)=C\[C@@H](C)C(=O)c1ccc(N(C)C)cc1 [trichostatin A]	–	–	elevated synergistically	elevated synergistically
